From PubChem BioAssay (NCI)
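Compound exposure: 48 hours, 5 concentrations, 96-well plates. The concentration for full growth arrest is given as TGI.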

Tests used:
Test in all cases: inhibition of tumour cell growth, NCI panel, 48 h
[1] = tested on: LOX IMVI melanoma
[2] = tested on: UACC-257 melanoma
[3] = tested on: OVCAR-4 ovarian
[4] = tested on: SW-620 colon
[5] = tested on: HS 578T breast
[6] = tested on: SF-295 CNS
[7] = tested on: M14 melanoma
[8] = tested on: UO-31 renal
[9] = tested on: SN12C renal
[10] = tested on: MCF7 breast
[11] = tested on: OVCAR-8 ovarian
[12] = tested on: HOP-92 NSCLC
[13] = tested on: NCI-H522 lung
[14] = tested on: BT-549 breast
[15] = tested on: HL-60(TB) leukemia
[16] = tested on: DU-145 prostate
[17] = tested on: COLO 205 colon
[18] = tested on: RPMI-8226 leukemia
[19] = tested on: SR leukemia
[20] = tested on: EKVX NSCLC
[21] = tested on: SK-OV-3 ovarian
[22] = tested on: NCI-H23 lung
[23] = tested on: OVCAR-5 ovarian
[24] = tested on: SF-539 CNS
[25] = tested on: U251 CNS
[26] = tested on: TK-10 renal
[27] = tested on: RXF 393 renal
[28] = tested on: K-562 leukemia
[29] = tested on: UACC-62 melanoma
[30] = tested on: CAKI-1 renal
[31] = tested on: HOP-62 NSCLC
[32] = tested on: IGROV1 ovarian
[33] = tested on: NCI-H460 lung
[34] = tested on: NCI/ADR-RES ovarian
[35] = tested on: HCT-116 colon
[36] = tested on: OVCAR-3 ovarian
[37] = tested on: SF-268 CNS
[38] = tested on: A549 NSCLC
[39] = tested on: SNB-19 CNS
[40] = tested on: MDA-MB-435
[41] = tested on: SK-MEL-2 melanoma
[42] = tested on: SK-MEL-5 melanoma
[43] = tested on: A498 renal
[44] = tested on: T-47D breast
[45] = tested on: HT29 colon
[46] = tested on: ACHN renal
[47] = tested on: HCT-15 colon
[48] = tested on: SNB-75 CNS
[49] = tested on: NCI-H226 lung
[50] = tested on: MALME-3M melanoma
[51] = tested on: MDA-N
[52] = tested on: KM12 colon
[53] = tested on: CCRF-CEM leukemia
[54] = tested on: 786-0 renal

Structure (SMILES): CCNC1(c2cccc(C)c2)OC(C)(C)c2cccc3cccc1c23 (centres undefined)
- TGI [1]: 32.6 µM
- TGI [2]: 37.9 µM
- TGI [3]: 29.9 µM
- TGI [4]: 36.6 µM
- TGI [5]: 44.3 µM
- TGI [6]: 35.2 µM
- TGI [7]: 38.1 µM
- TGI [8]: 29.8 µM
- TGI [9]: 35.9 µM
- TGI [10]: 34.9 µM
- TGI [11]: 36.5 µM
- TGI [12]: 22.4 µM
- TGI [13]: 29.6 µM
- TGI [14]: 37.2 µM
- TGI [15]: 19.7 µM
- TGI [16]: 36.1 µM
- TGI [17]: 34 µM
- TGI [18]: 15.8 µM
- TGI [19]: 35.9 µM
- TGI [20]: 38 µM
- TGI [21]: 37.9 µM
- TGI [22]: 34 µM
- TGI [23]: 38.1 µM
- TGI [24]: 34.9 µM
- TGI [25]: 31.4 µM
- TGI [26]: 38.3 µM
- TGI [27]: 32.1 µM
- TGI [28]: > 100 µM
- TGI [29]: 31 µM
- TGI [30]: 48.1 µM
- TGI [31]: 48.9 µM
- TGI [32]: 37.5 µM
- TGI [33]: 30 µM
- TGI [34]: 42.6 µM
- TGI [35]: 97.4 µM
- TGI [36]: 33.2 µM
- TGI [37]: 30.9 µM
- TGI [38]: 30.9 µM
- TGI [39]: 33.6 µM
- TGI [40]: 33.2 µM
- TGI [41]: 30.3 µM
- TGI [42]: 34.8 µM
- TGI [43]: 32.2 µM
- TGI [44]: > 100 µM
- TGI [45]: 27.8 µM
- TGI [46]: 32.4 µM
- TGI [47]: 42.9 µM
- TGI [48]: 30 µM
- TGI [49]: 39 µM
- TGI [50]: 34.3 µM
- TGI [51]: 36.8 µM
- TGI [52]: 69.8 µM
- TGI [53]: 26.4 µM
- TGI [54]: 37.6 µM
